ChEMBL document CHEMBL5352502, “Design, synthesis and biological evaluation of novel lipophilic 2, 5-disubstituted tetrazole analogues of muramyl dipeptide as NOD2 agonists” (Bioorg Med Chem, 2023)
Activity calls are given as the source filed them. The calls are words filed in the database; no cut-off is given here.

What was measured:
Serum [1] = test: Induction of antibody titer production in immunized BALB/c mouse serum assessed as increase in IgG1 antibody titer at 20 ug for 28 days; assay type: functional, cell-free; details: dose 20.0 µg, time 28.0 day
[2] = Induction of mouse spleen dendritic cells activation at 20 ug for 24 hrs relative to control; assay type: functional, Dendritic cell; details: dose 20 µg
Splenocyte [3] = test: Cytotoxicity against mouse splenocyte incubated at 10 to 30 ug for 3 hrs in by MTT assay; assay type: toxicity, cell-based; details: dose 10-30 µg
Serum [4] = test: Induction of antibody titer production in immunized BALB/c mouse serum assessed as fold increase in IgG1 antibody titer at 20 ug for 28 days; assay type: functional; details: dose 20 µg; time 28 day
Serum [5] = test: Induction of antibody titer production in immunized BALB/c mouse serum assessed as increase in IgG2a antibody titer at 20 ug for 28 days; assay type: functional, cell-free; details: dose 20.0 µg, time 28.0 day
[6] = molecular target: Nucleotide-binding oligomerization domain-containing protein 2 (Homo sapiens) (UniProt Q9HC29); test: Binding affinity to NOD2 in HEK-Blue hNOD2 cells by measuring secreted alkaline phosphatase into culture supernatant at 20 ug measured after 24 hrs by HEK-Blue detection method; assay type: cell-based; details: filed as agonist, dose 20.0 µg
Peritoneal macrophage = test: Cytotoxicity against BALB/c mouse peritoneal macrophage assessed as cell proliferation at 20 ug for 48 hrs by MTT assay; assay type: toxicity, cell-based; details: dose 20 µg
CD8-positive T cell [7] = test: Stimulation of […] in mouse spleen for 15 mins by auto- fluorescence based analysis; assay type: functional, tissue-based; details: dose 10-30 µg
Serum [8] = test: Induction of antibody titer production in immunized BALB/c mouse serum assessed as fold increase in IgG1 antibody titer at 30 ug for 28 days; assay type: functional; details: dose 30 µg; time 28 day
[9] = Induction of BALB/c mouse peritoneal macrophage activation by measuring TNF-alpha level at 20 ug for 48 hrs by ELISA analysis; assay type: functional; details: dose 20 µg
Serum [10] = test: Induction of antibody titer production in immunized BALB/c mouse serum assessed as increase in IgG2a antibody titer at 10 to 30 ug for 28 days; assay type: functional, cell-free; details: dose 10-30 µg, time 28.0 day
CD4+ve Th [11] = test: Stimulation of CD4+ T helper cells in mouse spleen for 15 mins by auto- fluorescence based analysis; assay type: functional, cell-based
Serum [12] = test: Induction of antibody titer production in immunized BALB/c mouse serum assessed as increase in IgG1 antibody titer at 10 to 30 ug for 28 days; assay type: functional, cell-free; details: dose 10-30 µg, time 28.0 day
[13] = Cytotoxicity against BALB/c mouse peritoneal macrophage assessed as cell proliferation at 20 ug for 48 hrs by MTT assay relative to control; assay type: toxicity, cell-based; details: peritoneal macrophages, at 20 µg, read-out: Activity
CD8-positive T cell [14] = test: Stimulation of […] in mouse spleen at 20 ug for 15 mins by auto- fluorescence based analysis; assay type: functional, tissue-based; details: dose 20.0 µg
Splenocyte [15] = test: Upregulation of IL-1beta in Dengue virus recombinant antigen restimulated mouse splenocyte incubated at 30 ug for 48 hrs by ELISA anlaysis; assay type: functional, cell-based; details: dose 10-30 µg
CD4+ve Th [16] = test: Stimulation of CD4+ T helper cells in mouse spleen at 20 ug for 15 mins by auto- fluorescence based analysis; assay type: functional, cell-based; details: dose 20.0 µg
Splenocyte [17] = test: Upregulation of IL-1beta in Dengue virus recombinant antigen restimulated mouse splenocyte incubated at 20 ug for 48 hrs by ELISA anlaysis; assay type: functional, cell-based; details: dose 20.0 µg

Sequence of Nucleotide-binding oligomerization domain-containing protein 2 (Homo sapiens) (Q9HC29 whole entry, the tested form may be a part): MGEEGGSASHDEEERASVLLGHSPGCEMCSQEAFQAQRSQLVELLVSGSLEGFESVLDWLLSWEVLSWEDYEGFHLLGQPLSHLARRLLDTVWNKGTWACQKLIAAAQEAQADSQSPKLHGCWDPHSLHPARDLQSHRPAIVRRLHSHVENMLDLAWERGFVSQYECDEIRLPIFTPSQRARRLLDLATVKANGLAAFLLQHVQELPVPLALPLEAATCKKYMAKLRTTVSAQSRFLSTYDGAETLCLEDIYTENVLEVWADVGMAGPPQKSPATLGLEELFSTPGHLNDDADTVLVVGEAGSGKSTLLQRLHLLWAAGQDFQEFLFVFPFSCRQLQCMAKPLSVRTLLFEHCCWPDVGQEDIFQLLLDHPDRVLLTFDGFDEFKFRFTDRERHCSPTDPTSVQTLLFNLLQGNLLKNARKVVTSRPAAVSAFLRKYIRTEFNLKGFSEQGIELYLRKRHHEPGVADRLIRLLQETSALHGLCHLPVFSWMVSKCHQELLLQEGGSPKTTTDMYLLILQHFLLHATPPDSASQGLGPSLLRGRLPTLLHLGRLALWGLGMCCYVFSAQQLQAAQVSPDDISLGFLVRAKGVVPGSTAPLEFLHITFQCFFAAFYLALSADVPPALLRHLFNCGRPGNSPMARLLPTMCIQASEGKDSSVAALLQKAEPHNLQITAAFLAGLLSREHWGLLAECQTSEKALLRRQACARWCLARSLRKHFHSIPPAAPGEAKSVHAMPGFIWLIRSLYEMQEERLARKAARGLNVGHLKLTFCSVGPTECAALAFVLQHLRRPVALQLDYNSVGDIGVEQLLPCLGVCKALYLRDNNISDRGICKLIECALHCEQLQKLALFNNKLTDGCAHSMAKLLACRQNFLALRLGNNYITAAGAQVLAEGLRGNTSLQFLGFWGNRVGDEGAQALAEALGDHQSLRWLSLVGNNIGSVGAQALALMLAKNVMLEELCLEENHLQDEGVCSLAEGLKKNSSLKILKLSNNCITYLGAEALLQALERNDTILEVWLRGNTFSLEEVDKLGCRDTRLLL

Row | SMILES | Activity (Serum [1]) | Activity [2] | Activity (Splenocyte [3]) | fold change (FC) (Serum [4]) | Activity (Serum [5]) | Activity [6] | Activity (Peritoneal macrophage) | Activity (CD8-positive T cell [7]) | fold change (FC) (Serum [8]) | Activity [9] | Activity (Serum [10]) | Activity (CD4+ve Th [11]) | Activity (Serum [12]) | viability at 48 h, 20 ug [13] | Activity (CD8-positive T cell [14]) | Activity (Splenocyte [15]) | Activity (CD4+ve Th [16]) | Activity (Splenocyte [17])
1 | CC(=O)N[C@H]1[C@@H](OCc2ccccc2)O[C@@H]2CO[C@@H](c3ccccc3)O[C@H]2[C@@H]1O[C@H](C)C(=O)N[C@@H](C)C(=O)N[C@H](CCC(=O)OCc1ccccc1)C(N)=O | Active | 13% | Toxic | 7 | Active | Active | Non-Toxic | – | – | – | – | – | – | – | – | – | – | –
2 | CCCCn1nnc([C@@H](CCC(=O)O)NC(=O)[C@H](C)NC(=O)[C@@H](C)O[C@H]2[C@H](O)[C@@H](CO)O[C@H](O)[C@@H]2NC(C)=O)n1 | – | 13% | Non-Toxic | 8 | – | Active | Non-Toxic | Dose-Dependent Effect | 11 | <=100 pg/ml | Active | Dose-Dependent Effect | Active | – | – | – | – | –
3 | CC(=O)N[C@@H]1[C@@H](O[C@H](C)C(=O)N[C@@H](C)C(=O)N[C@H](CCC(=O)O)c2nnn(C3CCCCCC3)n2)[C@H](O)[C@@H](CO)O[C@@H]1O | – | 13% | – | – | – | Active | Non-Toxic | – | – | 250 pg/mL | – | – | – | – | – | – | – | –
4 | CCCCCCCCCCCCn1nnc([C@@H](CCC(=O)O)NC(=O)[C@H](C)NC(=O)[C@@H](C)O[C@H]2[C@H](O)[C@@H](CO)O[C@H](O)[C@@H]2NC(C)=O)n1 | – | 13% | – | – | – | Active | Non-Toxic | – | – | 250 pg/mL | – | – | – | < 140% | – | – | – | –
5 | CC(=O)N[C@@H]1[C@@H](O[C@H](C)C(=O)N[C@@H](C)C(=O)N[C@H](CCC(=O)O)c2nn[nH]n2)[C@H](O)[C@@H](CO)O[C@@H]1O | – | 13% | – | – | – | Active | Non-Toxic | – | – | 250 pg/mL | – | – | – | – | – | – | – | –
6 | CCCCCCCCCCCCCCCCCCn1nnc([C@@H](CCC(=O)O)NC(=O)[C@H](C)NC(=O)[C@@H](C)O[C@H]2[C@H](O)[C@@H](CO)O[C@H](O)[C@@H]2NC(C)=O)n1 | – | 13% | – | – | – | Active | Non-Toxic | – | – | <=100 pg/ml | – | – | – | – | – | – | – | –
7 | CCCCCCCCn1nnc([C@@H](CCC(=O)O)NC(=O)[C@H](C)NC(=O)[C@@H](C)O[C@H]2[C@H](O)[C@@H](CO)O[C@H](O)[C@@H]2NC(C)=O)n1 | – | 13% | Non-Toxic | 11 | – | Active | Non-Toxic | – | – | <=100 pg/ml | Active | – | Active | – | inactive | Active | inactive | Active
